Calls of active or inactive are those of the source. The rule behind the calls is not given here. Starred links: 1 amine or outer side, 2 acyl side, 3 side chain; linkers in the order of their positions; H or OH if unused. Residues, ends and D or L forms follow the SMILES beside them. Groups on a side chain read outwards from the residue. *: point of attachment. Suc = O=C(CCC(=O)[*:2])[*:1]; NH(CH2)4NH2 = NCCCCN*; CO = O=C([*:1])[*:2]
Columns and labels:
[1] = target: T1, Neuropeptide Y receptor type 4 (Homo sapiens, UniProt P50391); experiment: Intrinsic activity at human neuropeptide Y Y4 receptor expressed in CHO-mtAEQ cells co-expressing Gqi5 by calcium aequorin assay; type: functional, cell-based
T1 sequence (P50391 whole entry): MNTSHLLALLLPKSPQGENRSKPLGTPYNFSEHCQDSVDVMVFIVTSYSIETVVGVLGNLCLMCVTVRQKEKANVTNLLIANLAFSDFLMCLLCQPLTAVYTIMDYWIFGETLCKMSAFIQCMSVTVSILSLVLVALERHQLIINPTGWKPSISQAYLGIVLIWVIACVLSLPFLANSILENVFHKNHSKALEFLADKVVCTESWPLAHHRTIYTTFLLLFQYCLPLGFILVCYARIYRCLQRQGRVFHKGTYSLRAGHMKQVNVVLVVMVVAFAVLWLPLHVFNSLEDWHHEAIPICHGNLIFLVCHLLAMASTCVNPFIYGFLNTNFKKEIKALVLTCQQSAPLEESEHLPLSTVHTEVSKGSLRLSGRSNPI

[2] = target: T1, Neuropeptide Y receptor type 4; experiment: Agonist activity at human neuropeptide Y Y4 receptor expressed in HEK293T-ARRB1 cells assessed as stimulation of beta-arrestin 1 recruitment by multimode plate reader; type: functional, cell-based
[3] = target: T2, Neuropeptide Y receptor type 2 (Homo sapiens, UniProt P49146); experiment: Displacement of [3H]UR-MK299 from human neuropeptide Y Y2 receptor expressed in CHO cells measured after 90 mins by scintillation counting analysis; type: cell-based
T2 sequence (P49146 whole entry): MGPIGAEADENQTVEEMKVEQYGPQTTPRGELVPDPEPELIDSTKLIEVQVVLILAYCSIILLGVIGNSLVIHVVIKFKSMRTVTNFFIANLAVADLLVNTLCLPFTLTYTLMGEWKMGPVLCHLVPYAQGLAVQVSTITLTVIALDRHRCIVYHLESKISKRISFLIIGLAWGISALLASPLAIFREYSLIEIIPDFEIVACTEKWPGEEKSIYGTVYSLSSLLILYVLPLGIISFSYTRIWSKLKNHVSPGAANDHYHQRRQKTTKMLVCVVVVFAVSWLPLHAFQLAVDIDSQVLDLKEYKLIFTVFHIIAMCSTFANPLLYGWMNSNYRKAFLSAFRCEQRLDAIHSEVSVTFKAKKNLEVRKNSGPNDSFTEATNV

[4] = target: T1, Neuropeptide Y receptor type 4; experiment: Agonist activity at human neuropeptide Y Y4 receptor expressed in CHO-mtAEQ cells co-expressing Gqi5 by calcium aequorin assay; type: functional, cell-based
Homo sapiens [5] = species on record: Homo sapiens; experiment: (§1) Selectivity ratio, Ki for displacement of [3H]UR-MK299 from human neuropeptide Y Y1 receptor in human SK-N-MC cells measured after 90 mins by scintillation counting analysis to Ki for displacement of [3H]UR-KK200 from human neuropeptide Y Y4 receptor expressed in CHO-mtAEQ cells co-expressing Gqi5 measured after 90 mins by scintillation counting analysis; type: cell-based
Homo sapiens [6] = species on record: Homo sapiens; experiment: Selectivity ratio, Ki for displacement of [3H]UR-MK299 from human neuropeptide Y Y2 receptor expressed in CHO cells measured after 90 mins by scintillation counting analysis to Ki for displacement of [3H]UR-KK200 from human neuropeptide Y Y4 receptor expressed in CHO-mtAEQ cells co-expressing Gqi5 measured after 90 mins by scintillation counting analysis; type: cell-based
[7] = target: T1, Neuropeptide Y receptor type 4; experiment: Displacement of [3H]UR-KK200 from human neuropeptide Y Y4 receptor expressed in CHO-mtAEQ cells co-expressing Gqi5 measured after 90 mins by scintillation counting analysis; type: cell-based
[8] = target: T1, Neuropeptide Y receptor type 4; experiment: Agonist activity at human neuropeptide Y Y4 receptor expressed in HEK293T-ARRB2 cells assessed as stimulation of beta-arrestin 2 recruitment by multimode plate reader; type: functional, cell-based
[9] = target: T1, Neuropeptide Y receptor type 4; experiment: Intrinsic activity at human neuropeptide Y Y4 receptor expressed in HEK293T-ARRB2 cells assessed as stimulation of beta-arrestin 2 recruitment by multimode plate reader relative to hPP; type: functional, cell-based
[10] = target: T1, Neuropeptide Y receptor type 4; experiment: Displacement of [3H]UR-KK200 from human neuropeptide Y Y4 receptor expressed in CHO-mtAEQ cells co-expressing Gqi5 assessed as fold change in affinity measured after 90 mins by scintillation counting analysis relative to Ac-Arg-Tyr-Arg-Leu-Arg-Tyr-NH2; type: cell-based; conditions: filed as agonist
[11] = target: T1, Neuropeptide Y receptor type 4; experiment: Intrinsic activity at human neuropeptide Y Y4 receptor expressed in HEK293T-ARRB1 cells assessed as stimulation of beta-arrestin 1 recruitment by multimode plate reader relative to hPP; type: functional, cell-based
[12] = target: T3, Neuropeptide Y receptor type 1 (Homo sapiens, UniProt P25929); experiment: Displacement of [3H]UR-MK299 from human neuropeptide Y Y1 receptor in human SK-N-MC cells measured after 90 mins by scintillation counting analysis; type: cell-based
T3 sequence (P25929 whole entry): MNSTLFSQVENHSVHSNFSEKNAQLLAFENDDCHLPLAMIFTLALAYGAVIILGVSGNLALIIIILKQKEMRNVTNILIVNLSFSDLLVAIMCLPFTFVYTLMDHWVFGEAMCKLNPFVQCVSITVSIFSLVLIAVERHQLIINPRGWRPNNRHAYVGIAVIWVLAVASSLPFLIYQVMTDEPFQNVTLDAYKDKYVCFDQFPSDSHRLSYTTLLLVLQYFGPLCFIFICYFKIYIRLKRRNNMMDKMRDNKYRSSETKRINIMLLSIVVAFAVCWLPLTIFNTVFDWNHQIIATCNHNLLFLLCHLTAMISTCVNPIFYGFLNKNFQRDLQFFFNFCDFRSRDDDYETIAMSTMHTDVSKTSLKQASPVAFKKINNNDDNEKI

[13] = target: T4, Neuropeptide Y receptor type 5 (Homo sapiens, UniProt Q15761); experiment: Displacement of [3H]propionyl-pNPY from human neuropeptide Y Y5 receptor in human HEC-1B cells measured after 90 mins by scintillation counting analysis; type: cell-based, HEC-1B cell line
T4 sequence (Q15761 whole entry): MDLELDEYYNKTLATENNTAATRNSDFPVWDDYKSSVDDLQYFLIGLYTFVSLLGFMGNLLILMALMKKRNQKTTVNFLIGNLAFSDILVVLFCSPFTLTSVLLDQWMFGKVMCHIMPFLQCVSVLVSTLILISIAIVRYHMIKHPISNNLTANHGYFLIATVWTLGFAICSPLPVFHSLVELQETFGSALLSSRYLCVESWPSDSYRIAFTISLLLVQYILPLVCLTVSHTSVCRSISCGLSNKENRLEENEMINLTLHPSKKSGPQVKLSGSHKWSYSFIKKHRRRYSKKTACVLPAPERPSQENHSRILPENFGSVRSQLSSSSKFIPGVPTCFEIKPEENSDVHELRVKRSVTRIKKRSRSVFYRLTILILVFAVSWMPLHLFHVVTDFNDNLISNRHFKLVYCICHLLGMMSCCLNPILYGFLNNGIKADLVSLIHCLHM

Homo sapiens [14] = species on record: Homo sapiens; experiment: as §1, with “[3H]propionyl-pNPY” for “[3H]UR-MK299”, “Y5” for “Y1”, “HEC-1B” for “SK-N-MC”; type: cell-based

SMILES	Intrinsic activity [1]	EC50 ([2]; read-out: EC50)	Ki ([3]; read-out: Ki)	Ki ([3]; read-out: pKi (converted))	EC50 [4]	Selectivity ratio (Homo sapiens [5])	Selectivity ratio (Homo sapiens [6])	Ki ([7]; read-out: Ki)	Ki ([7]; read-out: pKi (converted))	EC50 [8]	Intrinsic activity [9]	fold change (FC) [10]	Intrinsic activity [11]	Ki ([12]; read-out: pKi (converted))	Ki ([13]; read-out: Ki)	Ki ([13]; read-out: pKi (converted))	Selectivity ratio (Homo sapiens [14])	EC50 ([2]; read-out: pEC50 (converted))	Ki ([12]; read-out: Ki)	other results
CC(C)C[C@H](NC(=O)[C@@H]1CCCNC(=N)NC(=O)NCCCNC(=O)CCC(=O)N[C@@H](CCCNC(=N)N)C(=O)N[C@@H](Cc2ccc(O)cc2)C(=O)N1)C(=O)N[C@@H](CCCNC(=N)N)C(=O)N[C@@H](Cc1ccc(O)cc1)C(N)=O	83%	0.0035 µM	> 3 µM	> 3.16 µM	0.0151 µM	> 76000	> 23000	0.00013 µM	0.000117 µM	0.00537 µM	87%	26	90%	> 10 µM	> 3 µM	> 1 µM	> 23000	–	–	–
CC(C)C[C@H](NC(=O)[C@H](CCCNC(=N)NC(=O)NCCCCN)NC(=O)[C@H](CCCNC(=N)N)NC(=O)CCC(=O)O)C(=O)N[C@@H](CCCNC(=N)N)C(=O)N[C@@H](Cc1ccc(O)cc1)C(N)=O (Suc-RR([CO-NH(CH2)4NH2])LRY-NH2)	–	0.99 µM	> 10 µM	> 10 µM	–	> 1000	> 1000	0.01 µM	–	0.759 µM	60%	-2.9	71%	> 10 µM	–	> 10 µM	> 1000	–	–	Ki ([12]; sk-n-mc, read-out: Ki): > 10 µM
CC(C)C[C@H](NC(=O)[C@H](CCCNC(=N)NC(=O)NCCCCN)NC(=O)[C@H](Cc1ccc(O)cc1)NC(=O)[C@H](CCCCN)NC(=O)CCC(=O)O)C(=O)N[C@@H](CCCNC(=N)N)C(=O)N[C@@H](Cc1ccc(O)cc1)C(N)=O (Suc-KYR([CO-NH(CH2)4NH2])LRY-NH2)	–	0.27 µM	> 10 µM	> 10 µM	–	> 1400	> 1400	0.0071 µM	0.00692 µM	0.295 µM	61%	-2.1	57%	> 10 µM	–	> 10 µM	> 1000	–	–	Ki ([12]; sk-n-mc, read-out: Ki): > 10 µM; Ki ([13]; hec-1b cell line, read-out: Ki): > 10 µM
CC(C)C[C@H](NC(=O)[C@H](CCCNC(=N)N)NC(=O)[C@H](Cc1ccc(O)cc1)NC(=O)[C@H](CCCNC(=N)N)NC(=O)CCC(=O)O)C(=O)N[C@@H](CCCNC(=N)NC(=O)NCCCN)C(=O)N[C@@H](Cc1ccc(O)cc1)C(N)=O	inactive	–	–	–	> 10 µM	–	–	0.053 µM	–	> 10 µM	inactive	-16	inactive	–	–	–	–	> 10 µM	–	–
N=C(N)NCCC[C@H](NC(=O)CCC(=O)O)C(=O)N[C@@H](Cc1ccc(O)cc1)C(=O)N[C@@H](CCCNC(=N)NC(=O)NCCCCN)C(=O)N[C@@H](Cc1c[nH]c2ccccc12)C(=O)N[C@@H](CCCNC(=N)N)C(=O)N[C@@H](Cc1ccc(O)cc1)C(N)=O (single isomer, unassigned)	inactive	–	> 3 µM	> 3.16 µM	0.0759 µM	> 60	> 60	0.05 µM	–	0.145 µM	inactive	-15	inactive	> 3.16 µM	–	> 10 µM	> 200	0.0851 µM	> 3 µM	Ki ([13]; hec-1b cell line, read-out: Ki): > 10 µM
CC(C)C[C@@H]1NC(=O)[C@H](CCCNC(=N)N)NC(=O)[C@H](Cc2ccc(O)cc2)NC(=O)[C@H](CCCNC(=N)N)NC(=O)CCC(=O)NCCCNC(=O)NC(=N)NCCC[C@@H](C(=O)N[C@@H](Cc2ccc(O)cc2)C(N)=O)NC1=O	inactive	–	–	–	> 10 µM	–	–	0.14 µM	–	> 10 µM	inactive	-41	inactive	–	–	–	–	> 10 µM	–	–
CC(C)C[C@H](NC(=O)[C@@H]1CC(=O)NCC(=O)N[C@H](CCCNC(=N)N)C(=O)N[C@@H](CCCNC(=N)N)C(=O)N1)C(=O)N[C@@H](CCCNC(=N)N)C(=O)N[C@@H](Cc1ccc(O)cc1)C(N)=O	inactive	–	–	–	> 10 µM	–	–	0.17 µM	0.138 µM	> 10 µM	inactive	-50	inactive	–	–	–	–	> 10 µM	–	–
CC(=O)N[C@@H](CCCNC(=N)N)C(=O)N[C@@H](Cc1ccc(O)cc1)C(=O)N[C@@H](CCCNC(=N)N)C(=O)N[C@@H](CC(C)C)C(=O)N[C@@H](CCCNC(=N)N)C(=O)N[C@@H](Cc1ccc(O)cc1)C(N)=O	75%	–	–	> 3.16 µM	–	> 830	> 830	–	–	–	61%	–	55%	> 3.16 µM	–	> 3.16 µM	> 830	–	–	–
CC(C)C[C@H](NC(=O)[C@@H]1CCCNC(=N)NC(=O)NCCCCNC(=O)CCC(=O)N[C@@H](CCCNC(=N)N)C(=O)N1)C(=O)N[C@@H](CCCNC(=N)N)C(=O)N[C@@H](Cc1ccc(O)cc1)C(N)=O (HELM PEPTIDE1{R.[N=C(NCCC[C@H](N[*:1])C(=O)[*:2])N[*:3]].L.R.Y.[am]}|CHEM1{[O=C(CCC(=O)[*:1])NCCCCNC(=O)[*:2]]}$PEPTIDE1,CHEM1,1:R1-1:R1|PEPTIDE1,CHEM1,2:R3-1:R2$$$V2.0)	61%	0.18 µM	> 3 µM	> 3.16 µM	0.363 µM	> 2100	> 2100	0.0014 µM	–	0.0933 µM	83%	2.4	87%	> 3.16 µM	> 10 µM	> 1000 µM	> 7100	–	> 3 µM	–
CC(C)C[C@H](NC(=O)[C@@H]1CCCNC(=N)NC(=O)NCCCCNC(=O)CCC(=O)N[C@@H](CCCCN)C(=O)N[C@@H](Cc2ccc(O)cc2)C(=O)N1)C(=O)N[C@@H](CCCNC(=N)N)C(=O)N[C@@H](Cc1ccc(O)cc1)C(N)=O (HELM PEPTIDE1{K.Y.[N=C(NCCC[C@H](N[*:1])C(=O)[*:2])N[*:3]].L.R.Y.[am]}|CHEM1{[O=C(CCC(=O)[*:1])NCCCCNC(=O)[*:2]]}$PEPTIDE1,CHEM1,1:R1-1:R1|PEPTIDE1,CHEM1,3:R3-1:R2$$$V2.0)	75%	0.014 µM	> 10 µM	> 10 µM	0.0257 µM	> 12000	> 40000	0.00024 µM	–	0.0129 µM	67%	14	61%	> 3.16 µM	> 3 µM	> 3.16 µM	> 12000	–	> 3 µM	–
